Experimental data as given in US20260183274A1, “PDK1 REGULATORY COMPOUND AND COMPOSITION CONTAINING THE SAME” (PROVIBIO CO., LTD., priority 2024, published 2026).

Key:
[1] = test system: T cells isolated from mouse spleens; test: T cell proliferation inhibition (CFSE flow cytometry, anti-CD3/anti-CD28 stimulation); type: cell-based; settings: mouse spleen T cells, 3 days; for inhibition at 0.01 µM / inhibition at 0.1 µM / inhibition at 1 µM / inhibition at 10 µM / inhibition at 30 µM / inhibition at 50 µM: Mus musculus, T-cell, 72 h, read-out: Proliferation inhibition rate (%)
Procedure, shortened: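 Proliferation inhibition (%) came from flow cytometry of CFSE dilution after 3 days' culture at 37 °C with compound (10 nM, 100 nM, 1, 10, 30, 50 μM; triplicate wells). Cells were magnetically purified T cells from C57BL/6 mouse spleens, 2×10^5 per well, stimulated with 0.5 μg/mL each anti-CD3 and anti-CD28.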

[2] = test system: Human B Lymphocyte cell line, SU-DHL-8; test: Relative cell viability CCK-8, SU-DHL-8; type: cell-based; settings: for viability at 1 µM / viability at 10 µM / viability at 30 µM / viability at 50 µM: Homo sapiens, SU-DHL-8, 48 h; for viability at 1 µM: read-out: Relative cell viability (%), SU-DHL-8, 1 μM; for viability at 10 µM: read-out: Relative cell viability (%), SU-DHL-8, 10 μM; for viability at 30 µM: read-out: Relative cell viability (%), SU-DHL-8, 30 μM; for viability at 50 µM: read-out: Relative cell viability (%), SU-DHL-8, 50 μM
Description: Human-derived B lymphoma cell line SU-DHL-8 (Cat. #CRL-2961) purchased from ATCC was cultured in RPMI-1640 medium containing 10% FBS, 100 U/mL penicillin, and 100 μg/mL streptomycin.
The cell culture medium was then harvested, centrifuged at 1,300 rpm for 5 minutes, and the supernatant was removed. The cells were resuspended in the same medium and dispensed into a 96-well plate (Costar 96-well cell culture plate, Corning) at 90 μL per well, resulting in the conditions specified in Table 5.
Then, 10 μL of CCK-8 was added to each well, and the plates were incubated again at 37° C. in a 5% CO2 incubator for 4 hours.
In other words, when the survival rate of untreated cells (DMSO) is set at 100%, the relative cell survival rate in each group treated with the drug at different concentrations is indicated.

[3] = 1 μM, 48 hours, untreated (DMSO) = 100%
[4] = 10 μM, 48 hours, untreated (DMSO) = 100%
[5] = 30 μM, 48 hours, untreated (DMSO) = 100%
[6] = 50 μM, 48 hours, untreated (DMSO) = 100%
[7] = 48 hours, untreated (DMSO) = 100%

| Compound | Proliferation inhibition rate (%) ([1]; compound 10 nM) | Proliferation inhibition rate (%) ([1]; compound 100 nM) | Proliferation inhibition rate (%) ([1]; compound 1 μM) | Proliferation inhibition rate (%) ([1]; compound 10 μM) | Proliferation inhibition rate (%) ([1]; compound 30 μM) | Proliferation inhibition rate (%) ([1]; compound 50 μM) | Relative cell viability (%), SU-DHL-8 [2, 3] [%] | Relative cell viability (%), SU-DHL-8 [2, 4] [%] | Relative cell viability (%), SU-DHL-8 [2, 5] [%] | inhibition at 0.01 µM ([1]; compound 10 nM) [%] | inhibition at 0.1 µM ([1]; compound 100 nM) [%] | inhibition at 1 µM ([1]; compound 1 μM) [%] | inhibition at 10 µM ([1]; compound 10 μM) [%] | inhibition at 30 µM ([1]; compound 30 μM) [%] | inhibition at 50 µM ([1]; compound 50 μM) [%] | viability at 1 µM [2, 7] [%] | viability at 10 µM [2, 7] [%] | viability at 30 µM [2, 7] [%] | further results |
| --- | --- | --- | --- | --- | --- | --- | --- | --- | --- | --- | --- | --- | --- | --- | --- | --- | --- | --- | --- |
| CC1CN(CCCCCCCCCCCCNC(=O)c2cccnc2N)CC(C)O1 (centres unmarked) [Compound 21, 2-Amino-N-(12-(2,6-dimethylmorpholino)dodecyl) nicotinamide] | −13.87 | 100.00 | 100.00 | 100.00 | 100.00 | 100.00 | 9.64 | 7.68 | 3.70 | – | – | – | – | – | – | – | – | – | – |
| CC1(C)CCN(CCCCCCCCCCCCNC(=O)c2cccnc2N)C1 [Compound 22, 2-Amino-N-(12-(3,3-dimethylpyrrolidin-1-yl)dodecyl) nicotinamide] | −0.80 | 100.00 | 100.00 | 100.00 | 100.00 | 100.00 | 6.46 | 2.85 | 2.45 | – | – | – | – | – | – | – | – | – | Relative cell viability (%), SU-DHL-8 [2, 6]: 1.67% |
| CC1CCN(CCCCCCCCCCCCNC(=O)c2cccnc2N)C1 (centres unmarked) [Compound 24, 2-Amino-N-(12-(3-methylpyrrolidin-1-yl)dodecyl) nicotinamide] | −7.33 | 100.00 | 100.00 | 100.00 | 100.00 | 100.00 | 8.38 | 1.65 | 0.62 | – | – | – | – | – | – | – | – | – | – |
| Nc1ncccc1C(=O)NCCCCCCCCCCCCN1CCS(=O)(=O)CC1 [Compound 25, 2-Amino-N-(12-(1,1-dioxidothiomorpholino)dodecyl) nicotinamide] | −2.67 | 89.43 | 100.00 | 100.00 | 100.00 | 100.00 | 9.73 | 1.26 | 0.11 | – | – | – | – | – | – | – | – | – | Relative cell viability (%), SU-DHL-8 [2, 6]: 0.95% |
| Nc1ncccc1C(=O)NCCCCCCCCCCCCN1CCC(F)C1 (centres unmarked) [Compound 26, 2-Amino-N-(12-(3-fluoropyrrolidin-1-yl)dodecyl) nicotinamide] | 2.13 | 100.00 | 100.00 | 100.00 | 100.00 | 100.00 | 1.70 | 1.04 | 0.05 | – | – | – | – | – | – | – | – | – | – |
| Nc1ncccc1C(=O)NCCCCCCCCCCCCN1CCN(Cc2ccc(F)cc2)CC1 [Compound 27, 2-Amino-N-(12-(4-(4-fluorobenzyl)piperazin-1-yl)dodecyl)nicotinamide] | – | – | – | – | – | – | – | – | – | 2.27 | 83.3 | 100 | 100 | 100 | 100 | 6.24 | 4.97 | 2.03 | viability at 50 µM [2, 7]: 0.56% |
| COc1ccc(CN2CCN(CCCCCCCCCCCCNC(=O)c3cccnc3N)CC2)cc1 [Compound 28, 2-Amino-N-(12-(4-(4-methoxybenzyl)piperazin-1-yl)dodecyl)nicotinamide] | – | – | – | – | – | – | – | – | – | -0.27 | 100 | 100 | 100 | 100 | 100 | 5.46 | 2.82 | 0.33 | Relative cell viability (%), SU-DHL-8 ([2]; human, 48 h, 50 µM): −1.55% |
| CC1C2CCCN2CCN1CCCCCCCCCCCCNC(=O)c1cccnc1N (centres unmarked) [Compound 29, 2-Amino-N-(12-(1-methylhexahydropyrrolo[1,2-a]pyrazin-2 (1H)-yl)dodecyl)nicotinamide] | – | – | – | – | – | – | – | – | – | 4.15 | 100 | 100 | 100 | 100 | 100 | 3.85 | 1.86 | 1.25 | viability at 50 µM [2, 7]: 1.03% |
| CC1CN(C(=O)OC(C)(C)C)C(C)CN1CCCCCCCCCCCCNC(=O)c1cccnc1N (centres unmarked) [Compound 30, tert-Butyl 4-(12-(2-aminonicotinamido)dodecyl)-2,5-dimethylpiperazine-1-carboxylate] | – | – | – | – | – | – | – | – | – | 1.34 | 100 | 100 | 100 | 100 | 100 | 7.9 | 2.6 | 1.86 | viability at 50 µM [2, 7]: 1.06% |
| COC1CCN(CCCCCCCCCCCCNC(=O)c2cccnc2N)C1 (centres unmarked) [Compound 32, 2-Amino-N-(12-(3-methoxypyrrolidin-1-yl)dodecyl) nicotinamide] | – | – | – | – | – | – | – | – | – | – | – | – | – | – | – | – | – | – | Proliferation inhibition rate (%) ([1]; compound 10 nM, listed as PBK-2024-024, 0.01 µM): 0.29%; Relative cell viability (%), SU-DHL-8 ([2]; 1 μM, 48 hours, untreated (DMSO) = 100%, listed as PBK-2024-024, 1 µM): 3.48%; Relative cell viability (%), SU-DHL-8 ([2]; 10 μM, 48 hours, untreated (DMSO) = 100%, listed as PBK-2024-024, 10 µM): 3.01%; Relative cell viability (%), SU-DHL-8 ([2]; 30 μM, 48 hours, untreated (DMSO) = 100%, listed as PBK-2024-024, 30 µM): 1.97%; Relative cell viability (%), SU-DHL-8 ([2]; 50 μM, 48 hours, untreated (DMSO) = 100%, listed as PBK-2024-024, 50 µM): 1.45% |
| CN(C)CCN1CCN(CCCCCCCCCCCCNC(=O)c2cccnc2N)CC1 [Compound 33, 2-Amino-N-(12-(4-(2-(dimethylamino)ethyl)piperazin-1-yl)dodecyl)nicotinamide] | – | – | – | – | – | – | – | – | – | -36 | 100 | 100 | 100 | 100 | 100 | 10.1 | 4.32 | 3.35 | viability at 50 µM [2, 7]: 2.66% |
| CC1CNCCN1CCCCCCCCCCCCNC(=O)c1cccnc1N (centres unmarked) [Compound 35, 2-Amino-N-(12-(2-methylpiperazin-1-yl)dodecyl) nicotinamide] | 8.33 | 100.00 | 100.00 | 100.00 | 100.00 | 100.00 | 1.18 | 0.64 | 0.42 | – | – | – | – | – | – | – | – | – | – |
| C[C@H]1CNCCN1CCCCCCCCCCCCNC(=O)c1cccnc1N.Cl [Compound 37, (S)-2-Amino-N-(12-(2-methylpiperazin-1-yl)dodecyl) nicotinamide hydrochloride] | −4.14 | 33.33 | 100.00 | 100.00 | 100.00 | 100.00 | 6.38 | 4.45 | 3.17 | – | – | – | – | – | – | – | – | – | Relative cell viability (%), SU-DHL-8 [2, 6]: 2.32% |
| Nc1ncccc1C(=O)NCCCCCCCCCCCCN1CCC(Oc2ccncc2)CC1 [Compound 38, 2-Amino-N-(12-(4-(pyridin-4-yloxy)piperidin-1-yl)dodecyl) nicotinamide] | −33.51 | 100.00 | 100.00 | 100.00 | 100.00 | 100.00 | 4.16 | 3.30 | 1.79 | – | – | – | – | – | – | – | – | – | Relative cell viability (%), SU-DHL-8 [2, 6]: 1.42% |
